“Also recorded” adds a separate entry of the source.
How the values were obtained:
[1] = system: six to eight cultured tumor cell lines; experiment: In vitro cytotoxicity against the panel of tumor lines (overall activity grouping); assay type: cell-based, human and/or animal; settings: for anti-tumor activity (in words): summary over the tumor lines; for activity group: grouped as determined by the majority of the results over all tumor lines; for change in activity relative to Tx-37 (in words): structural modification of Tx-37; for change in activity relative to Tx-38 (in words): structural modification of Tx-38
Procedure: (§1) Every dibenzofluorene derivative was tested, as will be described below, against six to eight cultured, tumor cell lines of human and/or animal origin, at least half of which were selected from the NCI panel of test tumors. In each experiment, Adriamycin (ADR) was used as a maximally positive control.
(§2) Data are IC50 values (MTT assay) reported as μg/ml for 72 hours continuous exposure to the drug. Drugs were prepared in DMSO:PEG300 (1:1). Further, dilutions were made in a cell culture medium with fetal bovine serum.
Additional tumor lines against which the drugs were tested in certain series included L1210 (leukemia), PC3 (prostate) and several others.
(§3) Compounds were evaluated for solubility characteristics in vehicles which would be appropriate for use in cell culture. The compounds were added to the cell lines under continuous culture for 72 hours. Inhibition of growth relative to control cell culture was determined by the MTT method at the end of 72 hours. This is a test of the relative ability of a compound to inhibit cell growth not survival. However, inhibition of growth may reflect cell death and/or cytostasis.
ADR invariably produced the described anti-tumor effect against all tumor lines at concentrations lower than 1 μg/ml of culture media. The effect of the Tx-compounds was divided into five activity groups as described below. In all cases, if activity against a single tumor line differed radically from that against all others, notation was made of this specificity but the agent was grouped as determined by the majority of the results.

BRO human melanoma = experiment: In vitro cytotoxicity, MTT assay, 72 h continuous exposure; assay type: cell-based; settings: average over runs, value above 50 = 50% inhibition not achieved at 50 μg/ml
Procedure: as §1, §2, §3

[2] = system: OVCAR 3 human ovarian carcinoma; experiment: as above; assay type: cell-based; settings: average over runs, value above 50 = 50% inhibition not achieved at 50 μg/ml
Procedure: as §1, §2, §3

[3] = system: P388/0 murine lymphatic leukemia; experiment: as above; assay type: cell-based; settings: average over runs, value above 50 = 50% inhibition not achieved at 50 μg/ml
Procedure: as §1, §2, §3

[4] = system: MCF-7 human breast carcinoma; experiment: as above; assay type: cell-based; settings: average over runs, value above 50 = 50% inhibition not achieved at 50 μg/ml
Procedure: as §1, §2, §3

[5] = system: HL-60 human promyelocytic leukemia; experiment: as above; assay type: cell-based; settings: average over runs, value above 50 = 50% inhibition not achieved at 50 μg/ml
Procedure: as §1, §2, §3

[6] = system: HT-29 human colon adenocarcinoma; experiment: as above; assay type: cell-based; settings: average over runs, value above 50 = 50% inhibition not achieved at 50 μg/ml
Procedure: as §1, §2, §3

| SMILES | IC50 ([1]; Homo sapiens, all tumor lines, μg/ml of culture media, positive control, read-out: concentration producing the described anti-tumor effect against all tumor lines) | anti-tumor activity (in words) [1] | average IC50 BRO (BRO human melanoma) | average IC50 OVCAR-3 [2] | average IC50 P388/0 [3] | average IC50 MCF-7 [4] | average IC50 HL-60 [5] | average IC50 HT-29 [6] | activity group [1] | change in activity relative to Tx-37 (in words) [1] | change in activity relative to Tx-38 (in words) [1] |
| --- | --- | --- | --- | --- | --- | --- | --- | --- | --- | --- | --- |
| COc1cccc2c1C(=O)c1c(O)c3c(c(O)c1C2=O)C[C@@](O)(C(=O)CO)C[C@@H]3O[C@H]1C[C@H](N)[C@H](O)[C@H](C)O1 [ADR, Adriamycin, reference compound] | < 1 µg/mL | – | – | – | – | – | – | – | – | – | – |
| CN1CCN(C(=O)CCC(=O)Nc2cc3c(c4ccccc24)-c2ccc4ccccc4c2C3)CC1 [Tx-37, N-[11′-(13′H-Dibenzo[a,g]-fluorenyl)]-4-(4′N methyl-piperazinyl)-butane-1,4-dicarboxiamide] | – | consistent, highly positive effects; also recorded: most active compound; also recorded: significant activities | 1.8 µg/mL | 1.9 µg/mL | 2.0 µg/mL | 3.0 µg/mL | 1.6 µg/mL | 1.9 µg/mL | – | – | – |
| O=C(CCC(=O)N1CCCCC1)Nc1cc2c(c3ccccc13)-c1ccc3ccccc3c1C2 [Tx-38] | – | no significant anti-tumor activity; also recorded: little or no activity | 46.4 µg/mL | 39.5 µg/mL | 42.9 µg/mL | 22.8 µg/mL | 14.9 µg/mL | 34.4 µg/mL | – | – | – |
| CN1CCN(C(=O)C=CC(=O)Nc2cc3c(c4ccccc24)-c2ccc4ccccc4c2C3)CC1 [Tx-47] | – | – | 1.2 µg/mL | 1.1 µg/mL | 15.4 µg/mL | 20.2 µg/mL | 1.2 µg/mL | 16.7 µg/mL | GROUP C (These agents were effective against one-third to one-half of all tumor lines tested at levels less than 10 μg/ml) | reduced its activity significantly | – |
| O=C(C=CC(=O)N1CCCCC1)Nc1cc2c(c3ccccc13)-c1ccc3ccccc3c1C2 [Tx-48, N-[11′-13′H-Dibenzo[a,g]-fluorenyl]-4-(1′-piperidinyl)-but-2-ene-1,4-dicarboxiamide] | – | – | 22.6 µg/mL | 23.4 µg/mL | – | 18.3 µg/mL | 30.1 µg/mL | – | – | – | little or no change |
| CN1CCN(C(=O)CCC(=O)Nc2cc3c(c4ccccc24)-c2ccc4ccccc4c2C3)CC1.Cl [Tx-49, N-[11′-(13′H-Dibenzo[a,g]-fluorenyl)]-4-(4′N methyl-piperazinyl hydrochloride)-butane-1,4-dicarboxiamide] | – | – | 2.5 µg/mL | 2.8 µg/mL | 3.1 µg/mL | 5.7 µg/mL | 2.5 µg/mL | 2.5 µg/mL | – | minor change in the activity | – |
| CN1CCN(C(=O)CCC(=O)Nc2cc3c(c4ccccc24)-c2ccc4ccccc4c2C3=O)CC1 [Tx-50] | – | significant activities | 11.2 µg/mL | 6.6 µg/mL | 3.7 µg/mL | 18.1 µg/mL | 4.0 µg/mL | 10.0 µg/mL | – | slight diminution in activity | – |
| O=C(CCC(=O)N1CCCCC1)Nc1cc2c(c3ccccc13)-c1ccc3ccccc3c1C2=O [Tx-51] | – | little or no activity | 47.2 µg/mL | 16.2 µg/mL | – | 27.0 µg/mL | 32.0 µg/mL | – | – | – | – |
| CN1CCN(C(=O)CCC(=O)Nc2cc3c(c4ccccc24)-c2ccc4ccccc4c2C3O)CC1 (centres unmarked) [Tx-66] | – | – | 6.0 µg/mL | 4.2 µg/mL | 2.1 µg/mL | 5.9 µg/mL | 2.0 µg/mL | – | – | minor change in the activity | – |
| O=C(CCC(=O)N1CCCCC1)Nc1cc2c(c3ccccc13)-c1ccc3ccccc3c1C2O (centres unmarked) [Tx-67] | – | – | 14.7 µg/mL | 8.8 µg/mL | 9.2 µg/mL | 8.9 µg/mL | 5.6 µg/mL | – | – | – | greatly increased the activity |
| CN1CCN(C(=O)CCC(=O)Nc2ccc3c(c2)Cc2ccccc2-3)CC1 [Tx-68, N-[2′-(9′H-fluorenyl)]-4-(4′N methyl-piperazinyl)-butane-1,4-dicarboxiamide] | – | – | – | 31.7 µg/mL | – | 18.2 µg/mL | – | – | GROUP E (These agents produced some anti-tumor effect at doses above 10 μg/ml but less than 20 μg/ml) | – | – |
| O=C(CCC(=O)N1CCCCC1)Nc1ccc2c(c1)Cc1ccccc1-2 [Tx-69] | – | – | – | – | 41.5 µg/mL | 28.9 µg/mL | – | – | – | – | – |

— patent US6479662B2, “Antitumor dibenzofluorene derivatives” (Board of Regents, The University of Texas System, priority 1998, dated 2002)
